Experimental data reported in patent US11214594B2, “Antimicrobial peptide having synergistic antibacterial effect with antibiotics on multidrug resistant bacteria, and use thereof” (priority 2016, dated 2022).
Like-named read-outs stand apart in the source and are kept apart here. Where a SMILES comes first, the peptide text is derived from it.

What was measured:
A. baumannii [1] = assay: MIC of antibiotic during combined treatment with antimicrobial peptide; format: cell-based, Acinetobacter baumannii; details: A. baumannii; combined with peptide at 64 μg/ml
How it was run: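 Using MH broth, we determined combination MICs by titrating the antibiotic into wells and then repeating under the reverse dilution scheme.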

MDRAB 12035 [2] = assay: as above; format: cell-based, Acinetobacter baumannii
How it was run: (§1)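 Broth microdilution in MH medium; strains were diluted to 2×10^6 CFU per ml before plating. Peptide was serially diluted stepwise at 2:1 starting from its MIC, and MH-diluted antibiotic was then added to determine MIC. The reversed arrangement was also tested.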

E. coli = format: cell-based, Escherichia coli; details: E. coli
How it was run: as §1

MDREC 1229 = format: cell-based, Escherichia coli
How it was run: as §1

A. baumannii [3] = assay: MIC of antimicrobial peptide during combined treatment with antibiotic; format: cell-based, Acinetobacter baumannii
How it was run: as §1

MDRAB 12035 [4] = assay: as above; format: cell-based, Acinetobacter baumannii
How it was run: as §1

[5] = peptide treatment concentration 1 μg/ml
[6] = peptide treatment concentration 2 μg/ml
[7] = peptide treatment concentration 4 μg/ml
[8] = peptide treatment concentration 6 μg/ml
[9] = peptide treatment concentration 8 μg/ml
[10] = peptide treatment concentration 16 μg/ml
[11] = peptide treatment concentration 32 μg/ml
[12] = peptide treatment concentration 64 μg/ml
[13] = with Erythromycin […] (Conc./MIC 1)
[14] = erythromycin 4 μg/ml (Conc./MIC 1/8)
[15] = erythromycin 8 μg/ml (Conc./MIC 1/4)
[16] = erythromycin 16 μg/ml (Conc./MIC 1/2)
[17] = erythromycin 32 μg/ml (Conc./MIC 1)
[18] = vancomycin 512 μg/ml (Conc./MIC 1/2)
[19] = vancomycin 1024 μg/ml (Conc./MIC 1)

## CC[C@H](C)[C@H](NC(=O)[C@H](CCCCN)NC(=O)[C@H](Cc1c[nH]c2ccccc12)NC(=O)[C@@H](N)CCCNC(=N)N)C(=O)N[C@@H](Cc1ccccc1)C(=O)N[C@@H](CCCCN)C(=O)N[C@@H](CCCCN)C(=O)N[C@H](C(=O)N1CCC[C@H]1C(=O)N[C@@H](CCCCN)C(=O)N[C@@H](CC(C)C)C(=O)N[C@@H](CC(C)C)C(=O)N[C@@H](Cc1c[nH]cn1)C(=O)N[C@@H](CO)C(=O)N[C@@H](C)C(=O)N[C@@H](CCCCN)C(=O)N[C@@H](CCCCN)C(=O)N[C@@H](Cc1c[nH]c2ccccc12)C(N)=O)[C@@H](C)CC [PapMA-9, RWK IFK KIP KLL HSA KKW-NH2] (H-RWKIFKKIPKLLHSAKKW-NH2; N-terminus assumed)
A. baumannii [1]
  Antibiotic MIC, Linezolid: 0 µg/mL
  Antibiotic MIC, Vancomycin: 0 µg/mL
MDRAB 12035 [2]; [5]
  Erythromycin MIC during combined treatment with peptide: 16 µg/mL
  Linezolid MIC during combined treatment with peptide: >128 µg/mL
  Vancomycin MIC during combined treatment with peptide: >128 µg/mL
MDRAB 12035 [2]; [6]
  Erythromycin MIC during combined treatment with peptide: 16 µg/mL
  Linezolid MIC during combined treatment with peptide: 64 µg/mL
  Vancomycin MIC during combined treatment with peptide: 128 µg/mL
MDRAB 12035 [2]; [7]
  Erythromycin MIC during combined treatment with peptide: 4 µg/mL
  Linezolid MIC during combined treatment with peptide: 32 µg/mL
  Vancomycin MIC during combined treatment with peptide: 64 µg/mL
MDRAB 12035 [2]; [8]
  Erythromycin MIC during combined treatment with peptide: 0.5 µg/mL
  Linezolid MIC during combined treatment with peptide: 16 µg/mL
  Vancomycin MIC during combined treatment with peptide: 16 µg/mL
MDRAB 12035 [2]; [9]
  Erythromycin MIC during combined treatment with peptide: 0.25 µg/mL
  Linezolid MIC during combined treatment with peptide: 4 µg/mL
  Vancomycin MIC during combined treatment with peptide: 8 µg/mL
MDRAB 12035 [2]; [10]
  Erythromycin MIC during combined treatment with peptide: 0.25 µg/mL
  Linezolid MIC during combined treatment with peptide: 4 µg/mL
  Vancomycin MIC during combined treatment with peptide: 8 µg/mL
MDRAB 12035 [2]; [11]
  Erythromycin MIC during combined treatment with peptide: 0.125 µg/mL
  Linezolid MIC during combined treatment with peptide: 2 µg/mL
  Vancomycin MIC during combined treatment with peptide: 2 µg/mL
MDRAB 12035 [2]; [12]
  Erythromycin MIC during combined treatment with peptide: 0 µg/mL
  Linezolid MIC during combined treatment with peptide: 0 µg/mL
  Vancomycin MIC during combined treatment with peptide: 0 µg/mL
E. coli; [13]
  Peptide MIC: 0 µg/mL
E. coli; with Linezolid […] (Conc./MIC 1)
  Peptide MIC: 0 µg/mL
E. coli; with Vancomycin 1024 μg/ml (Conc./MIC 1)
  Peptide MIC: 0 µg/mL
MDREC 1229; [13]
  Peptide MIC: 0 µg/mL
MDREC 1229; with Linezolid 512 μg/ml (Conc./MIC 1)
  Peptide MIC: 0 µg/mL
A. baumannii [3]; [14]
  Peptide MIC during treatment with antibiotic: 4 µg/mL
A. baumannii [3]; [15]
  Peptide MIC during treatment with antibiotic: 2 µg/mL
A. baumannii [3]; [16]
  Peptide MIC during treatment with antibiotic: 2 µg/mL
A. baumannii [3]; [17]
  Peptide MIC during treatment with antibiotic: 0 µg/mL
A. baumannii [3]; linezolid 32 μg/ml (Conc./MIC 1/8)
  Peptide MIC during treatment with antibiotic: 4 µg/mL
A. baumannii [3]; linezolid 64 μg/ml (Conc./MIC 1/4)
  Peptide MIC during treatment with antibiotic: 4 µg/mL
A. baumannii [3]; linezolid […] (Conc./MIC 1)
  Peptide MIC during treatment with antibiotic: 0 µg/mL
A. baumannii [3]; linezolid […] (Conc./MIC 1/2)
  Peptide MIC during treatment with antibiotic: 2 µg/mL
A. baumannii [3]; [18]
  Peptide MIC during treatment with antibiotic: 0.25 µg/mL
A. baumannii [3]; [19]
  Peptide MIC during treatment with antibiotic: 0 µg/mL
A. baumannii [3]; vancomycin […] (Conc./MIC 1/4)
  Peptide MIC during treatment with antibiotic: 0.5 µg/mL
A. baumannii [3]; vancomycin […] (Conc./MIC 1/8)
  Peptide MIC during treatment with antibiotic: 2 µg/mL
MDRAB 12035 [4]; [14]
  Peptide MIC during treatment with erythromycin: 4 µg/mL
MDRAB 12035 [4]; [15]
  Peptide MIC during treatment with erythromycin: 4 µg/mL
MDRAB 12035 [4]; [16]
  Peptide MIC during treatment with erythromycin: 1 µg/mL
MDRAB 12035 [4]; [17]
  Peptide MIC during treatment with erythromycin: 0 µg/mL
MDRAB 12035 [4]; linezolid 64 μg/ml (Conc./MIC 1/8)
  Peptide MIC during treatment with linezolid: 2 µg/mL
MDRAB 12035 [4]; linezolid 512 μg/ml (Conc./MIC 1)
  Peptide MIC during treatment with linezolid: 0 µg/mL
MDRAB 12035 [4]; linezolid […] (Conc./MIC 1/2)
  Peptide MIC during treatment with linezolid: 1 µg/mL
MDRAB 12035 [4]; linezolid […] (Conc./MIC 1/4)
  Peptide MIC during treatment with linezolid: 2 µg/mL
MDRAB 12035 [4]; [18]
  Peptide MIC during treatment with vancomycin: 1 µg/mL
MDRAB 12035 [4]; [19]
  Peptide MIC during treatment with vancomycin: 0.25 µg/mL
MDRAB 12035 [4]; vancomycin […] (Conc./MIC 1/4)
  Peptide MIC during treatment with vancomycin: 1 µg/mL
MDRAB 12035 [4]; vancomycin […] (Conc./MIC 1/8)
  Peptide MIC during treatment with vancomycin: 2 µg/mL
